Test results as given in PubChem BioAssay (NCI).
Values joined by “and” are separate entries in the source; they are usually repeats but may differ in a detail not shown here. Equal entries are not always repeated.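 Dose response: 5 concentrations. Exposure: 48 h. Format: 96-well plates. Endpoint: linear interpolation; highest concentration if not reached. GI50 is the concentration that inhibits growth by half. The concentration for full growth arrest is given as TGI.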

Assays:
Experiment in all cases: NCI-60 cell line screen, 48 h
MDA-MB-435 = tested on: MDA-MB-435
OVCAR-4 ovarian = tested on: OVCAR-4 ovarian
MCF7 breast = tested on: MCF7 breast
A498 renal = tested on: A498 renal
SR leukemia = tested on: SR leukemia
UACC-62 melanoma = tested on: UACC-62 melanoma

CCN(CC)CCCC(C)Nc1ccnc2cc(Oc3ccccc3)ccc12 (stereo unspecified)
GI50 (MDA-MB-435): 2.38 µM
TGI (MDA-MB-435): 6.21 µM and 7.27 µM
GI50 (OVCAR-4 ovarian): 9.78 µM and 16 µM
TGI (OVCAR-4 ovarian): 41.7 µM and 59.2 µM
GI50 (MCF7 breast): 8.46 µM and 6.01 µM
TGI (MCF7 breast): 26.5 µM and 19.4 µM
TGI (A498 renal): 7.85 µM and 28.5 µM
GI50 (SR leukemia): 2.6 µM and 2.27 µM
TGI (SR leukemia): 12.9 µM and 6.66 µM
GI50 (UACC-62 melanoma): 4.16 µM and 3.24 µM
TGI (UACC-62 melanoma): 11.2 µM and 12.3 µM

CN[C@@H](C)C(=O)N[C@H](C(=O)N1CCC[C@H]1C(=O)Nc1snnc1-c1ccccc1)C1CCCCC1
GI50 (MDA-MB-435): 32.1 µM
TGI (MDA-MB-435): > 100 µM
GI50 (OVCAR-4 ovarian): 5.58 µM
TGI (OVCAR-4 ovarian): 99.6 µM
GI50 (MCF7 breast): 59.1 µM
TGI (MCF7 breast): > 100 µM
GI50 (A498 renal): 19.5 µM
TGI (A498 renal): 57.3 µM
GI50 (SR leukemia): 20.7 µM
TGI (SR leukemia): > 69.7 µM
GI50 (UACC-62 melanoma): 16.2 µM
TGI (UACC-62 melanoma): 34.2 µM

C=C(C)C(=O)Nc1ccc(NC(C)C)cc1
GI50 (MDA-MB-435): > 100 µM
TGI (MDA-MB-435): > 100 µM
GI50 (OVCAR-4 ovarian): > 100 µM
TGI (OVCAR-4 ovarian): > 100 µM
GI50 (MCF7 breast): > 100 µM
TGI (MCF7 breast): > 100 µM
GI50 (A498 renal): > 100 µM
TGI (A498 renal): > 100 µM
GI50 (SR leukemia): > 100 µM
TGI (SR leukemia): > 100 µM
GI50 (UACC-62 melanoma): > 100 µM
TGI (UACC-62 melanoma): > 100 µM

CCC(C)(CC(C)(C)C(=O)NCC(=O)NC(Cc1ccccc1)C(=O)NC(Cc1ccccc1)C(=O)NCC(=O)NC1CC(OC2CC(O)(C(=O)CO)Cc3c(O)c4c(c(O)c32)C(=O)c2c(OC)cccc2C4=O)OC(C)C1O)C(=O)NCC(C)O (stereo unspecified)
GI50 (MDA-MB-435): > 150 µg/mL
TGI (MDA-MB-435): > 150 µg/mL
GI50 (OVCAR-4 ovarian): > 150 µg/mL
TGI (OVCAR-4 ovarian): > 150 µg/mL
GI50 (MCF7 breast): 22 µg/mL
TGI (MCF7 breast): > 150 µg/mL
GI50 (A498 renal): > 150 µg/mL
TGI (A498 renal): > 150 µg/mL
GI50 (UACC-62 melanoma): 75 µg/mL
TGI (UACC-62 melanoma): > 150 µg/mL

Cc1ccc(S(=O)(=O)N/N=C/c2c(O)ccc3ccccc23)cc1
TGI (MDA-MB-435): 55.3 µM
TGI (OVCAR-4 ovarian): 84.3 µM
TGI (MCF7 breast): > 100 µM
TGI (A498 renal): 44.2 µM
TGI (UACC-62 melanoma): 49.4 µM

O=[N+]([O-])O.[Cu+2].[NH-]CC[NH-].[NH-]CC[NH-]
GI50 (MDA-MB-435): > 10 µM
TGI (MDA-MB-435): > 10 µM
GI50 (OVCAR-4 ovarian): > 10 µM
TGI (OVCAR-4 ovarian): > 10 µM
GI50 (MCF7 breast): > 10 µM
TGI (MCF7 breast): > 10 µM
GI50 (A498 renal): > 10 µM
TGI (A498 renal): > 10 µM
GI50 (SR leukemia): > 10 µM
TGI (SR leukemia): > 10 µM
GI50 (UACC-62 melanoma): > 10 µM
TGI (UACC-62 melanoma): > 10 µM

COc1ccc(C(=O)OC2C(OC3C(O)COC(O[C@H]4C[C@H]5[C@@H]6CC=C7C[C@@H](O)CC[C@]7(C)[C@H]6CC[C@]5(C)[C@H]4[C@H](C)C(=O)CCC(C)C)C3OC(N)=O)OCC(O)C2O)cc1 (stereo partly specified)
GI50 (MDA-MB-435): 0.0346 µM
TGI (MDA-MB-435): 0.547 µM
GI50 (OVCAR-4 ovarian): 0.475 µM
TGI (OVCAR-4 ovarian): 5.26 µM
GI50 (MCF7 breast): 0.00855 µM
TGI (MCF7 breast): 0.635 µM
GI50 (A498 renal): 0.00699 µM
TGI (A498 renal): 0.0351 µM
GI50 (SR leukemia): 0.00567 µM
TGI (SR leukemia): 0.493 µM
GI50 (UACC-62 melanoma): 0.00978 µM
TGI (UACC-62 melanoma): 0.04 µM

CC(C)(C)OC(=O)N1CCN(CCn2cc(C(F)(F)F)c3c(Cl)ncnc32)CC1
GI50 (MDA-MB-435): 1.84 µM
TGI (MDA-MB-435): 3.65 µM
GI50 (OVCAR-4 ovarian): 13.2 µM
TGI (OVCAR-4 ovarian): 26.7 µM
GI50 (MCF7 breast): 12.3 µM
TGI (MCF7 breast): 32.1 µM
GI50 (A498 renal): 18.2 µM
TGI (A498 renal): 32.7 µM
GI50 (SR leukemia): 2.94 µM
TGI (SR leukemia): > 100 µM
GI50 (UACC-62 melanoma): 2.25 µM
TGI (UACC-62 melanoma): 5.69 µM

C[C@H]1[C@H](C)CC[C@]2(CO)CC[C@]3(C)C(=CC[C@@H]4[C@@]5(C)CCCNC(C)(C)[C@@H]5CC[C@]43C)[C@H]12
GI50 (MDA-MB-435): 1.59 µM
TGI (MDA-MB-435): 3.21 µM
GI50 (MCF7 breast): 1.58 µM
TGI (MCF7 breast): 3.39 µM
GI50 (A498 renal): 1.63 µM
TGI (A498 renal): 3.29 µM
GI50 (UACC-62 melanoma): 1.85 µM
TGI (UACC-62 melanoma): 3.35 µM

O=C1Nc2ccccc2/C1=C/C(=O)c1coc2c1C(=O)c1ccccc1C2=O
GI50 (MDA-MB-435): > 100 µM
TGI (MDA-MB-435): > 100 µM
GI50 (OVCAR-4 ovarian): > 100 µM
TGI (OVCAR-4 ovarian): > 100 µM
GI50 (MCF7 breast): 74.7 µM
TGI (MCF7 breast): > 100 µM
GI50 (A498 renal): 45.7 µM
TGI (A498 renal): > 100 µM
GI50 (SR leukemia): 80.4 µM
TGI (SR leukemia): > 100 µM
GI50 (UACC-62 melanoma): 94.4 µM
TGI (UACC-62 melanoma): > 100 µM
